Measured values published in ChEMBL document CHEMBL3091456, “Chemical Probe Identification Platform for Orphan GPCRs Using Focused Compound Screening: GPR39 as a Case Example” (ACS Med Chem Lett, 2013).
The source made the active and inactive calls. No cut-off for these calls is given here.

Assays:
[1] = target: T1, G-protein coupled receptor 39 (Homo sapiens) (UniProt O43194); test: Agonist activity at GPR39 in human HT-29 cells assessed as cAMP accumulation up to 30 uM; type: functional, cell-based
T1 sequence (whole entry): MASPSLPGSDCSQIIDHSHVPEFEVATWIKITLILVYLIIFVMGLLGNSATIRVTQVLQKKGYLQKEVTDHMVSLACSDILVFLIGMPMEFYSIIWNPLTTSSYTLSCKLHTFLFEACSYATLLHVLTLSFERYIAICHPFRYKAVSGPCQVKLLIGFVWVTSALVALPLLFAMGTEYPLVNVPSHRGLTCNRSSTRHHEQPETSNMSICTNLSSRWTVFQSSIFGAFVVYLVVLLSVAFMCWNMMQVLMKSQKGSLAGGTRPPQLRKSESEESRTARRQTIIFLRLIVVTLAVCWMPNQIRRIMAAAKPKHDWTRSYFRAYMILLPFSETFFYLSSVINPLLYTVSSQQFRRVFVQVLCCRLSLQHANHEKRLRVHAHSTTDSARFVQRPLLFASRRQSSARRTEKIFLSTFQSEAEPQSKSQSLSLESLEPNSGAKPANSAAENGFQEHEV

[2] = target: T1, G-protein coupled receptor 39 (Homo sapiens); test: Agonist activity at recombinant human GPR39 expressed in CHO-K1 cells assessed as increase of Zn2+-induced cAMP production preincubated for 30 mins measured after 60 mins relative to Zn+2; type: functional, cell-based
[3] = target: T1, G-protein coupled receptor 39 (Homo sapiens); test: Agonist activity at recombinant human GPR39 expressed in CHO-K1 cells assessed as increase of Zn2+-induced intracellular Ca+2 mobilization after 1 hr by Fluo-4 No staining-based FLIPR assay relative to Zn+2; type: cell-based
[4] = target: T1, G-protein coupled receptor 39 (Homo sapiens); test: Agonist activity at GPR39 in human HT-29 cells assessed as intracellular Ca2+ mobilization up to 30 uM after 72 hrs by FLIPR assay; type: functional, cell-based
[5] = target: T2, G-protein coupled receptor 39 (Homo sapiens, UniProt O43194); test: Agonist activity at recombinant human GPR39 expressed in CHO-K1 cells assessed as increase of Zn2+-induced intracellular Ca+2 mobilization after 1 hr by Fluo-4 No staining-based FLIPR assay; type: cell-based
T2 sequence (O43194 whole entry): T1 sequence (whole entry)

[6] = target: T2, G-protein coupled receptor 39; test: Agonist activity at recombinant human GPR39 expressed in CHO-K1 cells assessed as increase of Zn2+-induced cAMP production preincubated for 30 mins measured after 60 mins; type: functional, cell-based
[7] = Apparent permeability of the compound; type: physicochemical; settings: not told
[8] = target: T2, G-protein coupled receptor 39; test: Agonist activity at GPR39 in human HT-29 cells assessed as increase in intracellular Ca2+ mobilization after 72 hrs by FLIPR assay; type: functional, cell-based
[9] = target: cGMP-inhibited 3',5'-cyclic phosphodiesterase 3A (Homo sapiens, UniProt Q14432); test: Inhibition of PDE3a (unknown origin)
[10] = target: T1, G-protein coupled receptor 39 (Homo sapiens); test: Agonist activity at GPR39 in human islets assessed as 2.8 mM glucose-stimulated insulin secretion up to 10 uM after 0.75 hrs
[11] = target: cGMP-inhibited 3',5'-cyclic phosphodiesterase 3B (Homo sapiens, UniProt Q13370); test: Inhibition of PDE3B (unknown origin)
[12] = Apparent permeability across MDCK cells; type: ADME, cell-based, Canis lupus familiaris; settings: dog
[13] = target: T3, Protein Gpr39 (Rattus norvegicus) (UniProt A6QR73); test: Agonist activity at GPR39 in rat INS-1 cells assessed as effect on glucose-stimulated insulin secretion; type: cell-based; settings: INS1
T3 sequence (whole entry): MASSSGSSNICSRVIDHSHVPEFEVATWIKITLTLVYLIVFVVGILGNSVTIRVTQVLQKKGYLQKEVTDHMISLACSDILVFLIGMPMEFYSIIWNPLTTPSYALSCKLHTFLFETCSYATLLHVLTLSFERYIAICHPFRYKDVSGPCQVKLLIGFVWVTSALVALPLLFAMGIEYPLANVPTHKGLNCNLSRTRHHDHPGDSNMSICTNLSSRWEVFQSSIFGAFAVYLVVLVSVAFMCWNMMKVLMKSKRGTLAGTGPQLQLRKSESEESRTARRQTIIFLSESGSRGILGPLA

[14] = target: T1, G-protein coupled receptor 39 (Homo sapiens); test: Agonist activity at GPR39 in human islets assessed as 11.2 mM glucose-stimulated insulin secretion up to 10 uM after 1 hr
[15] = target: T1, G-protein coupled receptor 39 (Homo sapiens); test: Agonist activity at GPR39 in human HT-29 cells assessed as intracellular Ca2+ mobilization after 72 hrs by FLIPR assay in presence of siRNA; type: functional, cell-based
[16] = target: T1, G-protein coupled receptor 39 (Homo sapiens); test: Agonist activity at GPR39 in human HT-29 cells assessed as cAMP accumulation; type: functional, cell-based

Sequence of cGMP-inhibited 3',5'-cyclic phosphodiesterase 3A (Q14432 whole entry): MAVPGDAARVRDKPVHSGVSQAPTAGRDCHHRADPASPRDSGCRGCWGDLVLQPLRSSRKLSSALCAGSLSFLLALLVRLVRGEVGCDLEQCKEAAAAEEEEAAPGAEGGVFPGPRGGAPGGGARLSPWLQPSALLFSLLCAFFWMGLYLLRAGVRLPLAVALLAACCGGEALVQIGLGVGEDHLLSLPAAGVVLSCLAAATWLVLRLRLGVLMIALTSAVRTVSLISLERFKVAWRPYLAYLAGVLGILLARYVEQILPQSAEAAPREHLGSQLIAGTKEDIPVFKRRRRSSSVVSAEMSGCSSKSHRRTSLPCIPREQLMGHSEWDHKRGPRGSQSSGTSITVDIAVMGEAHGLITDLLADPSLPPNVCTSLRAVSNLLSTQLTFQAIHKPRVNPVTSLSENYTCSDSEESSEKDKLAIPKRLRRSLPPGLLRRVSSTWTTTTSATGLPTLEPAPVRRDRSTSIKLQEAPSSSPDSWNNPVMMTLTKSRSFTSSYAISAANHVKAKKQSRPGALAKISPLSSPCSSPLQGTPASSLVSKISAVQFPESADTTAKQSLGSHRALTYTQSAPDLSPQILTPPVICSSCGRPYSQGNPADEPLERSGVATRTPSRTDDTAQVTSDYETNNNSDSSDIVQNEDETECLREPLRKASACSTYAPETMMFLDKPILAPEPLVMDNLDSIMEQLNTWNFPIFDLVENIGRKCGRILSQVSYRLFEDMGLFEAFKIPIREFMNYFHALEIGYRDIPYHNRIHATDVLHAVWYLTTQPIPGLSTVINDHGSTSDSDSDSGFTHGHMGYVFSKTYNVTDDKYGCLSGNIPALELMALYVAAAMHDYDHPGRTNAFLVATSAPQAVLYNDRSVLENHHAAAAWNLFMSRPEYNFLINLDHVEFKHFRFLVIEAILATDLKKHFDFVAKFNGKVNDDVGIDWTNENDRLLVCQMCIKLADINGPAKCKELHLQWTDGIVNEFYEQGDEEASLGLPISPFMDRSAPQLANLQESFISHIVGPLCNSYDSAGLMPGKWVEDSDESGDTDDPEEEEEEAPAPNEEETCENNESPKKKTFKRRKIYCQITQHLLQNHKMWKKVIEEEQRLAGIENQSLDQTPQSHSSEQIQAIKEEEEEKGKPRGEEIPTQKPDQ
Sequence of cGMP-inhibited 3',5'-cyclic phosphodiesterase 3B (Q13370 whole entry): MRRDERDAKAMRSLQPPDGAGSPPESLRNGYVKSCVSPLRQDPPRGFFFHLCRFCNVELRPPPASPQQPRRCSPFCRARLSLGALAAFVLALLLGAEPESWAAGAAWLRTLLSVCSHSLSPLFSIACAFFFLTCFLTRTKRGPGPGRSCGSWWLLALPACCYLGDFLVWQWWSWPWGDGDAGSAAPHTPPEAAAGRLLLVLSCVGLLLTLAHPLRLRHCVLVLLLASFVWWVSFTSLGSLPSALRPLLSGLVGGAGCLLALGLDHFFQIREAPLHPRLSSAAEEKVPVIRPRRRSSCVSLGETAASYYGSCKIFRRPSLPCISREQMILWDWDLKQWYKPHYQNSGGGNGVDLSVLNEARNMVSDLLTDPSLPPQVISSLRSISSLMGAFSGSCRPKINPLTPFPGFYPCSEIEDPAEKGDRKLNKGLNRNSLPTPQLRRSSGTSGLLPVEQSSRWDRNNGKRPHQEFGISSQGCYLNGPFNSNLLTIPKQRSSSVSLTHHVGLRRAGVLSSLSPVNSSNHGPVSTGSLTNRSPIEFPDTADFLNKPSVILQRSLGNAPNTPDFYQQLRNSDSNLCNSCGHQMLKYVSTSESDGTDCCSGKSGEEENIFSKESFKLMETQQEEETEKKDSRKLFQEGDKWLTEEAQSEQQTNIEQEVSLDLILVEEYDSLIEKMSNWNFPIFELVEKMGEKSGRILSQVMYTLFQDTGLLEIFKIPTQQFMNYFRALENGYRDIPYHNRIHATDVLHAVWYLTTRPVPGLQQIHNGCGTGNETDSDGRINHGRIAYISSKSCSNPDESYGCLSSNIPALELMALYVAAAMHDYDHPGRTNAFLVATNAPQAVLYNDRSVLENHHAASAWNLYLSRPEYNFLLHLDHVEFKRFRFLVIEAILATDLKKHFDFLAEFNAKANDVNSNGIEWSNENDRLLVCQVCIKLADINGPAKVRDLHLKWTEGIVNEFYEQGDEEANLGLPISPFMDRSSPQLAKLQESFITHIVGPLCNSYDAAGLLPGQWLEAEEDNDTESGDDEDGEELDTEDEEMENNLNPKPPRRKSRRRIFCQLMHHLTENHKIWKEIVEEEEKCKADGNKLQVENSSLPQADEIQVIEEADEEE

Row | Activity [1] | Efficacy [2] | Efficacy [3] | Activity [4] | EC50 [5] | EC50 [6] | Papp [7] | Compound | other results
1 | inactive | 99% | 74% | inactive | – | – | – | CCc1nc(CN2C[C@@H](C(=O)NCc3ccccc3Cl)[C@H](c3cccnc3)C2)c[nH]1 | –
2 | – | – | – | – | 320 nM | 310 nM | 1.2 ×10⁻⁶ cm/s | CCc1ncc(CN2C[C@H](C(=O)NCc3ccccc3Cl)[C@@H](c3cccnc3)C2)[nH]1 | –
3 | – | 100% | 76% | – | 56 nM | 12000 nM | – | N#Cc1ccc(N2CCN(Cc3cn4cc(Cl)ccc4n3)CC2)nc1 | EC50 [8]: 900 nM; IC50 [9]: 15000 nM; Activity [10]: inactive; IC50 [11]: 24000 nM; Papp [12]: 7.6 ×10⁻⁶ cm/s; Activity [13]: inactive; Activity [14]: inactive; Activity [15]: inactive; Activity [16]: inactive

The next lines start with the compound.

Row | Compound | Activity [1] | Efficacy [2] | Efficacy [3] | Activity [4] | EC50 [5] | EC50 [6] | Papp [7] | other results
4 | COc1cccc([C@@H]2CCN(CCc3ccccc3)C[C@H]2C(=O)NCCc2ccccn2)c1 (racemic) | – | 107% | 82% | – | 3100 nM | 4500 nM | 3.1 ×10⁻⁶ cm/s | –
5 | CCc1ncc(CN2C[C@@H](C(=O)NCc3ccccc3Cl)[C@H](c3cccnc3)C2)[nH]1 | – | – | – | – | 190 nM | 840 nM | 0.8 ×10⁻⁶ cm/s | –
6 | CCc1nc(CN2C[C@H](C(=O)NCc3ccccc3Cl)[C@@H](c3cccnc3)C2)c[nH]1 | inactive | 107% | 66% | inactive | – | – | – | –
